Test results taken from US8080529B2, “Macrolides with anti-inflammatory activity” (Glaxo Group Limited, priority 2005, dated 2011).
Like-named read-outs stand apart in the source and are kept apart here.

Assays:
Format in all cases: cell-based
IL-1α = assay: Inhibition of IL-1 production by stimulated human peripheral blood leukocytes in vitro; details: Homo sapiens, Leukocyte, read-out: Percentage of inhibition of IL-1α production
IL-6 = assay: Inhibition of IL-6 production by stimulated human peripheral blood leukocytes in vitro; details: Homo sapiens, Leukocyte, read-out: Percentage of inhibition of IL-6 production
Experimental: (§1) Test substances used in in vitro experiments were dissolved in dimethyl sulfoxide (DMSO) (Kemika, Croatia) at concentrations of 50 mM and 10 mM, and were further diluted to final concentrations of 50 μM and 10 μM in 1 mL Dulbecco's modified Eagle medium (DMEM) supplemented with 1% heat inactivated fetal bovine serum (FBS), 1% L-glutamine, 50 U/ml penicillin, 50 μg/ml streptomycin and 2.5 μg/mL Fungizone (amphotericin B). Media and all media supplements were purchased from Gibco, Australia, except the FBS was purchased from Sigma, USA.
(§2) Peripheral blood leukocytes (PBL) were obtained from venous blood of healthy volunteers by sedimentation on 2% dextran T-500 (Amersham Biosciences, USA) and subsequent centrifugations of leukocyte rich plasma.
(§3) Peripheral blood leukocytes (PBL), isolated as described above, were seeded in a 48-well plate at a concentration of 3 to 5×10^6 cell per well in culture medium consisting of RPMI 1640 medium (Institute of Immunology, Croatia) supplemented with 10% heat-inactivated fetal calf serum (FCS, Biowhittaker, USA), 100 U/ml penicillin (Gibco, Australia), 100 μg/ml streptomycin (Gibco, Australia) and 2 mM L-glutamine (Gibco, Australia), and preincubated with the test compounds for 2 h at 37° C., in an atmosphere of 5% CO2, and 90% humidity. Then, stimuli (Sigma, USA) were added to a final concentration of 2 μg/mL lipopolysaccharide (LPS), 1 μg/mL phorbol 12-myristate 13-acetate (PMA) or 120 μg/mL zymosan. Samples were incubated overnight under conditions described above. At the end of incubation, the supernatants were transferred to eppendorf tubes and centrifuged for 10 min at 1500×g. Concentrations of human TNF-α, IL-1β, IL-6 and IL-8 were determined in cell supernatants by sandwich ELISA, using capture and detection antibodies (R&D Systems, Minneapolis, Minn.) according to the manufacturer's recommendations.
(§4) Inhibition (as percentage) was calculated using the following formula: % inhibition=(1−concentration of cytokines in sample/concentration of cytokines in positive control)×100.
(§5) The positive control refers to LPS-, PMA- or zymosan-stimulated samples that were not preincubated with test compounds.

A549 = assay: Cytotoxicity assay (MTT), A549 cell line; details: 24 h
Experimental: (§6) To determine whether the anti-inflammatory activity of the test compounds was due to observed inhibition of cytokine production and inhibition of proliferation in vitro, and was not a consequence of cellular cytotoxicity, measurement of succinate dehydrogenase activity in living cells was performed. Cells were cultured for 24 h in RPM medium as described above at 37° C. the presence of the test compounds at concentrations of 50 μM and 12.5 μM. MTT [3-(4,5-dimethylthiazole-2-yl)-2,5-diphenyl tetrazolium bromide] (Promega, USA), a detection reagent, was then added and the cultures were incubated for 0.5-2 h. The amount of MTT-Formazan produced was determined using a spectrophotometer at 490 nm (Mosmann, J. Immunol. Methods, 1983, 65: 55-63).
(§7) The percentage of inhibition of cell growth was calculated using the following formula: % inhibition of cell growth=[…].

TNF-α = assay: Inhibition of TNF-α production by stimulated human peripheral blood leukocytes in vitro; details: Homo sapiens, Leukocyte, read-out: Percentage of inhibition of TNF-α production
Experimental: as §1, §2, §3, §4, §5

IL-8 = assay: Inhibition of IL-8 production by stimulated human peripheral blood leukocytes in vitro; details: Homo sapiens, Leukocyte, read-out: Percentage of inhibition of IL-8 production
Experimental: as §1, §2, §3, §4, §5

Hep G2 = assay: Cytotoxicity assay (MTT), Hep G2 cell line; details: 24 h
Experimental: as §6, §7

SMILES: C=CC(=O)OC1[C@H](C)O[C@@H](O[C@H]2[C@H](C)[C@@H](O[C@@H]3O[C@H](C)C[C@H](NC)[C@H]3O)[C@](C)(OC)C[C@@H](C)C(=O)N[C@H](C)[C@@H](O)[C@](C)(O)[C@@H](CC)OC(=O)[C@@H]2C)C[C@@]1(C)OC (stereo partly shown) [Example 53, 3′-N-Demethyl-4″-O-acryloyl-6-O-methyl-9a-aza-9a-homoerythromycin A]
- inhibition at 10 µM (IL-1α; LPS-stimulated PBL): 83%
- inhibition at 10 µM (IL-1α; PMA-stimulated PBL): 92%
- inhibition at 10 µM (IL-1α; zymosan-stimulated PBL): 92%
- inhibition at 50 µM (IL-1α; LPS-stimulated PBL): 95%
- inhibition at 50 µM (IL-1α; PMA-stimulated PBL): 99%
- inhibition at 50 µM (IL-1α; zymosan-stimulated PBL): 100%
- inhibition at 10 µM (IL-6; LPS-stimulated PBL): 20%
- inhibition at 10 µM (IL-6; PMA-stimulated PBL): 66%
- inhibition at 10 µM (IL-6; zymosan-stimulated PBL): 68%
- inhibition at 50 µM (IL-6; LPS-stimulated PBL): 99%
- inhibition at 50 µM (IL-6; PMA-stimulated PBL): 95%
- inhibition at 50 µM (IL-6; zymosan-stimulated PBL): 100%
- Percentage of inhibition of cell growth (A549; 12.5 μM): 9%
- Percentage of inhibition of cell growth (A549; 50 μM): 12%
- inhibition at 10 µM (TNF-α; LPS-stimulated PBL): 28%
- inhibition at 10 µM (TNF-α; PMA-stimulated PBL): 82%
- inhibition at 10 µM (TNF-α; zymosan-stimulated PBL): 64%
- inhibition at 50 µM (TNF-α; LPS-stimulated PBL): 100%
- inhibition at 50 µM (TNF-α; PMA-stimulated PBL): 100%
- inhibition at 50 µM (TNF-α; zymosan-stimulated PBL): 100%
- inhibition at 10 µM (IL-8; LPS-stimulated PBL): 9%
- inhibition at 10 µM (IL-8; PMA-stimulated PBL): 30%
- inhibition at 10 µM (IL-8; zymosan-stimulated PBL): 19%
- inhibition at 50 µM (IL-8; LPS-stimulated PBL): 100%
- inhibition at 50 µM (IL-8; PMA-stimulated PBL): 63%
- inhibition at 50 µM (IL-8; zymosan-stimulated PBL): 92%
- Percentage of inhibition of cell growth (Hep G2; 12.5 μM): 0%
- Percentage of inhibition of cell growth (Hep G2; 50 μM): 2%

SMILES: CC[C@H]1OC(=O)[C@H](C)[C@@H](O[C@H]2C[C@@](C)(OC)[C@@H](OC(=O)CCN3CC(C)CC(C)C3)[C@H](C)O2)[C@H](C)[C@@H](O[C@@H]2O[C@H](C)C[C@H](N(C)C)[C@H]2O)[C@](C)(OC)C[C@@H](C)C(=O)N[C@H](C)[C@@H](O)[C@]1(C)O (stereo partly shown) [Example 37]
- inhibition at 10 µM (IL-1α; LPS-stimulated PBL): 60%
- inhibition at 10 µM (IL-1α; PMA-stimulated PBL): 14%
- inhibition at 10 µM (IL-1α; zymosan-stimulated PBL): 49%
- inhibition at 50 µM (IL-1α; LPS-stimulated PBL): 69%
- inhibition at 50 µM (IL-1α; PMA-stimulated PBL): 25%
- inhibition at 50 µM (IL-1α; zymosan-stimulated PBL): 98%
- inhibition at 10 µM (IL-6; LPS-stimulated PBL): 20%
- inhibition at 10 µM (IL-6; PMA-stimulated PBL): 41%
- inhibition at 10 µM (IL-6; zymosan-stimulated PBL): 21%
- inhibition at 50 µM (IL-6; LPS-stimulated PBL): 78%
- inhibition at 50 µM (IL-6; PMA-stimulated PBL): 57%
- inhibition at 50 µM (IL-6; zymosan-stimulated PBL): 100%
- Percentage of inhibition of cell growth (A549; 12.5 μM): 1%
- Percentage of inhibition of cell growth (A549; 50 μM): 0%
- inhibition at 10 µM (TNF-α; LPS-stimulated PBL): 15%
- inhibition at 10 µM (TNF-α; PMA-stimulated PBL): 28%
- inhibition at 10 µM (TNF-α; zymosan-stimulated PBL): 17%
- inhibition at 50 µM (TNF-α; LPS-stimulated PBL): 76%
- inhibition at 50 µM (TNF-α; PMA-stimulated PBL): 45%
- inhibition at 50 µM (TNF-α; zymosan-stimulated PBL): 96%
- inhibition at 10 µM (IL-8; LPS-stimulated PBL): 14%
- inhibition at 10 µM (IL-8; PMA-stimulated PBL): 17%
- inhibition at 10 µM (IL-8; zymosan-stimulated PBL): 27%
- inhibition at 50 µM (IL-8; LPS-stimulated PBL): 0%
- inhibition at 50 µM (IL-8; PMA-stimulated PBL): 10%
- inhibition at 50 µM (IL-8; zymosan-stimulated PBL): 0%
- Percentage of inhibition of cell growth (Hep G2; 12.5 μM): 3%
- Percentage of inhibition of cell growth (Hep G2; 50 μM): 19%

SMILES: CC[C@H]1OC(=O)[C@H](C)[C@@H](O[C@H]2C[C@@](C)(OC)[C@@H](OC(=O)CCN3CCCCCC3)[C@H](C)O2)[C@H](C)[C@@H](O[C@@H]2O[C@H](C)C[C@H](N(C)C)[C@H]2O)[C@](C)(OC)C[C@@H](C)C(=O)N[C@H](C)[C@@H](O)[C@]1(C)O [Example 41]
- inhibition at 10 µM (IL-1α; LPS-stimulated PBL): 79%
- inhibition at 10 µM (IL-1α; PMA-stimulated PBL): 52%
- inhibition at 10 µM (IL-1α; zymosan-stimulated PBL): 80%
- inhibition at 50 µM (IL-1α; LPS-stimulated PBL): 84%
- inhibition at 50 µM (IL-1α; PMA-stimulated PBL): 100%
- inhibition at 50 µM (IL-1α; zymosan-stimulated PBL): 100%
- inhibition at 10 µM (IL-6; LPS-stimulated PBL): 25%
- inhibition at 10 µM (IL-6; PMA-stimulated PBL): 59%
- inhibition at 10 µM (IL-6; zymosan-stimulated PBL): 36%
- inhibition at 50 µM (IL-6; LPS-stimulated PBL): 92%
- inhibition at 50 µM (IL-6; PMA-stimulated PBL): 79%
- inhibition at 50 µM (IL-6; zymosan-stimulated PBL): 100%
- Percentage of inhibition of cell growth (A549; 12.5 μM): 1%
- Percentage of inhibition of cell growth (A549; 50 μM): 0%
- inhibition at 10 µM (TNF-α; LPS-stimulated PBL): 39%
- inhibition at 10 µM (TNF-α; PMA-stimulated PBL): 30%
- inhibition at 10 µM (TNF-α; zymosan-stimulated PBL): 27%
- inhibition at 50 µM (TNF-α; LPS-stimulated PBL): 95%
- inhibition at 50 µM (TNF-α; PMA-stimulated PBL): 70%
- inhibition at 50 µM (TNF-α; zymosan-stimulated PBL): 99%
- inhibition at 10 µM (IL-8; LPS-stimulated PBL): 29%
- inhibition at 10 µM (IL-8; PMA-stimulated PBL): 10%
- inhibition at 10 µM (IL-8; zymosan-stimulated PBL): 19%
- inhibition at 50 µM (IL-8; LPS-stimulated PBL): 87%
- inhibition at 50 µM (IL-8; PMA-stimulated PBL): 42%
- inhibition at 50 µM (IL-8; zymosan-stimulated PBL): 63%
- Percentage of inhibition of cell growth (Hep G2; 12.5 μM): 7%
- Percentage of inhibition of cell growth (Hep G2; 50 μM): 3%

SMILES: CC[C@H]1OC(=O)[C@H](C)[C@@H](OC2C[C@@](C)(OC)[C@@H](OC(=O)CCN3CCNCC3)[C@H](C)O2)[C@H](C)[C@@H](OC2O[C@H](C)C[C@H](N(C)C)[C@H]2O)[C@](C)(OC)C[C@@H](C)C(=O)[C@H](C)[C@@H](O)[C@]1(C)O (stereo partly shown) [Example 50, 4″-O-(3-piperazin-1-yl-propionyl)-6-O-methylerithromycin A]
- inhibition at 10 µM (IL-1α; LPS-stimulated PBL): 19%
- inhibition at 10 µM (IL-1α; PMA-stimulated PBL): 0%
- inhibition at 10 µM (IL-1α; zymosan-stimulated PBL): 81%
- inhibition at 50 µM (IL-1α; LPS-stimulated PBL): 23%
- inhibition at 50 µM (IL-1α; PMA-stimulated PBL): 44%
- inhibition at 50 µM (IL-1α; zymosan-stimulated PBL): 69%
- inhibition at 10 µM (IL-6; LPS-stimulated PBL): 0%
- inhibition at 10 µM (IL-6; PMA-stimulated PBL): 0%
- inhibition at 10 µM (IL-6; zymosan-stimulated PBL): 52%
- inhibition at 50 µM (IL-6; LPS-stimulated PBL): 54%
- inhibition at 50 µM (IL-6; PMA-stimulated PBL): 23%
- inhibition at 50 µM (IL-6; zymosan-stimulated PBL): 96%
- Percentage of inhibition of cell growth (A549; 12.5 μM): 10%
- Percentage of inhibition of cell growth (A549; 50 μM): 10%
- inhibition at 10 µM (TNF-α; LPS-stimulated PBL): 10%
- inhibition at 10 µM (TNF-α; PMA-stimulated PBL): 0%
- inhibition at 10 µM (TNF-α; zymosan-stimulated PBL): 36%
- inhibition at 50 µM (TNF-α; LPS-stimulated PBL): 100%
- inhibition at 50 µM (TNF-α; PMA-stimulated PBL): 100%
- inhibition at 50 µM (TNF-α; zymosan-stimulated PBL): 98%
- inhibition at 10 µM (IL-8; LPS-stimulated PBL): 0%
- inhibition at 10 µM (IL-8; PMA-stimulated PBL): 0%
- inhibition at 10 µM (IL-8; zymosan-stimulated PBL): 0%
- inhibition at 50 µM (IL-8; LPS-stimulated PBL): 61%
- inhibition at 50 µM (IL-8; PMA-stimulated PBL): 100%
- inhibition at 50 µM (IL-8; zymosan-stimulated PBL): 70%
- Percentage of inhibition of cell growth (Hep G2; 12.5 μM): 0%
- Percentage of inhibition of cell growth (Hep G2; 50 μM): 8%
